What was measured:
[1] = system: HeLa (human epithelial cervical cancer) cell line; assay: MTT cytotoxicity assay; assay type: cell-based; conditions: after 48 h of treatment, mean ± S.D
Excerpt: (§1) HeLa (human epithelial cervical cancer, ATCC CCL-2), HepG2 (human epithelial liver cancer, ATCC HB-8065) and Vero (monkey epithelial kidney […], ATCC CCL-81) cell lines were used to examine the selected virtual hit compounds’ anti-cancer activity. All cell lines were generously provided by the late Prof. Dr. M.H. Qazi, University of Lahore, Lahore, Pakistan. The test compounds were purchased via MolPort and cisplatin from Pharmedic (Pvt) Ltd., Lahore, Pakistan. Cell culture media, fetal calf serum (FCS), MTT (3-[[…]]-2,5-diphenyltetrazolium bromide), DMSO, antibiotic/antimycotic and Supplementary Materials were purchased from Thermo Fisher Scientific, Inc, (Waltham, MA, USA).
(§2) Cells were harvested at 80% confluence by treating the medium-free monolayer with trypsin-EDTA. Cell counts were performed with a hemocytometer, and cell viability was determined with trypan blue. The cell suspension was adjusted to a final concentration of […] in DMEM (Dulbecco’s modified Eagle medium) with 10% FCS. Cells were dispensed to tissue culture grade 96-well plates, with each microwell receiving 100 µL, i.e., 7000 cells per microwell. The plate was incubated at 37 °C for 12 h in 5% CO2 incubator. Stock solutions (10 mM) of the test compounds and positive control were prepared in DMSO. Test concentrations were prepared by diluting the stocks with the growth media. Test compound solutions were diluted from 100 µL to a final well volume of 200 µL. MTT reagent was prepared in phosphate-buffered saline (PBS) in a concentration of 5 mg/mL. After 48 h, 25 µL of MTT reagent was added to each microwell, followed by incubation for 5 h. MTT is reduced by metabolically active cells to insoluble purple formazan crystals by mitochondrial enzymes. The reduction of MTT is primarily due to glycolytic activity within the cell, and is dependent upon the presence of NADH and NADPH. The entire contents of each microwell were carefully pipetted out without disturbing the cells on the well floor. In order to solubilize the formazan crystals, 100 µL of DMSO was dispensed to each well. The absorbance was measured with the help of a Bio Rad PR 4100 microplate reader at a wavelength of 570 nm. Serial dilutions of cisplatin were used as a positive control, while the negative controls contained only the reagent, but not any drug. Percentage viability was calculated and dose–response curves were plotted using the percentage viability against the drug/test compound concentration (µM). Results represent mean ±SD of six readings: three determinations of two independent experiments.
(§3) These four compounds were subsequently tested for their cytotoxic effect on different cell lines. Cell viability assays on cancer cell lines HeLa and HepG2 and non-cancerous Vero cell line were performed using the lead compounds (Z21, Z88, F34, AF3) with doses ranging from 50 to 400 µM. Cisplatin was used as a positive control at dose levels of 1 µM, 10 µM, and 20 µM. Dose–response curves of all four inhibitors against the three cell lines show the moderate sensitivity of all cell line toward these inhibitors (Figure 6).

[2] = system: HepG2 (human epithelial liver cancer) cell line; assay: MTT cytotoxicity assay; assay type: cell-based; conditions: after 48 h of treatment, mean ± S.D
Excerpt: as §1, §2, §3

[3] = system: Vero (monkey epithelial kidney) cell line; assay: MTT cytotoxicity assay; assay type: cell-based; conditions: after 48 h of treatment, mean ± S.D
Excerpt: as §1, §2, §3

cannabinoid CB1 receptor = molecular target: cannabinoid CB1 receptor; parameters: method as in PMID 17027269; conditions: cited from earlier work
[4] = system: VEGF, RET, MET, NTRKB, TIE2, AXL; conditions: FDA-approved kinase inhibitor, against tested cell lines, no reference given; cited from earlier work
[5] = system: BCR-ABL, SRC, KIT, PDGFR, EPH, CSK; conditions: FDA-approved kinase inhibitor, against tested cell lines, no reference given; cited from earlier work
[6] = system: BCR-ABL, KIT, LCK, EPHA3, 8, DDR1, 2; conditions: FDA-approved kinase inhibitor, against tested cell lines, no reference given; cited from earlier work
PDGFR, VEGFR = conditions: FDA-approved kinase inhibitor, against tested cell lines, no reference given; cited from earlier work
[7] = system: TIE2, PDGFR, RET, KIT, B-RAF; conditions: FDA-approved kinase inhibitor, against tested cell lines, no reference given; cited from earlier work
[8] = system: EGFR, VEGFR, RET, Tie-2, FGFR1; conditions: FDA-approved kinase inhibitor, against tested cell lines, no reference given; cited from earlier work

Compound: COc1ccc(C(=O)Oc2ccc3c(=O)c(Oc4ccc5ccccc5c4)coc3c2)cc1 [AF3]
- IC50 [1]: 176 ± 2.12 µM
- IC50 [2]: 188 ± 2.31 µM
- IC50 [3]: 209 ± 2.43 µM

Compound: N.N.[Cl][Pt][Cl] [Cisplatin, cisplatin, reference compound]
- IC50 [1]: 6.02 ± 1.59 µM
- IC50 [2]: 6.41 ± 1.54 µM
- IC50 [3]: 7.99 ± 2.38 µM

Compound: Cc1ccc(NC(=O)Cn2cnc3sc(-c4nc(-c5ccccc5)no4)c(C)c3c2=O)cc1Cl [Compound F34]
- IC50 [1]: 145 ± 2.06 µM
- IC50 [2]: 175.5 ± 1.66 µM
- IC50 [3]: 131 ± 2.3 µM

Compound: O=S(=O)(c1cccc(NCc2cccc3ccccc23)c1)N1CCOCC1 [Compound Z21]
- IC50 [1]: 231 ± 2.35 µM
- IC50 [2]: 246 ± 1.93 µM
- IC50 [3]: 250.2 ± 2.34 µM

Compound: O=C(CCn1[nH]c(=O)c2ccccc2c1=O)N1CCCC1c1ccc2c(c1)OCCO2 (stereo not shown) [Compound Z88]
- IC50 [1]: 218.7 ± 2.04 µM
- IC50 [2]: 222.1 ± 1.68 µM
- IC50 [3]: 204.8 ± 1.78 µM

Compound: O=C(Nc1ccc(Cl)c(S(=O)(=O)N2CCOCC2)c1)c1cccc2ccccc12 [N-(4-chloro-3-(morpholinosulfonyl)phenyl)-1-naphthamide]
- IC50 (cannabinoid CB1 receptor): nanomolar range

Compound: COc1cc2nccc(Oc3ccc(NC(=O)C4(C(=O)Nc5ccc(F)cc5)CC4)cc3)c2cc1OC [cabozantinib]
- IC50 [4]: < 0.015 µM

Compound: Cc1nc(Nc2ncc(C(=O)Nc3c(C)cccc3Cl)s2)cc(N2CCN(CCO)CC2)n1 [dasatinib]
- IC50 [5]: < 0.01 µM

Compound: Cc1ccc(Nc2nccc(N(C)c3ccc4c(C)n(C)nc4c3)n2)cc1S(N)(=O)=O [pazopanib]
- IC50 (PDGFR, VEGFR): […]

Compound: CNC(=O)c1cc(Oc2ccc(NC(=O)Nc3ccc(Cl)c(C(F)(F)F)c3)c(F)c2)ccn1 [regorafenib]
- IC50 [7]: […]

Compound: COc1cc2c(Nc3ccc(Br)cc3F)ncnc2cc1OCC1CCN(C)CC1 [vandetanib]
- IC50 [8]: […]
